Results on 14 compounds are retold here after ChEMBL document CHEMBL1268978, “Arylpiperazine-containing pyrimidine 4-carboxamide derivatives targeting serotonin 5-HT(2A), 5-HT(2C), and the serotonin transporter as a potential antidepressant” (Bioorg Med Chem Lett, 2010).

Calls of active or inactive are those of the source. No cut-off for these calls is given here.

The target of data set [1] is 5-hydroxytryptamine receptor 2A (Homo sapiens, UniProt P28223). Kind of data set: Displacement of [3H]ketanserin from human recombinant 5HT2A receptor expressed in CHO-K1 cells. The format is cell-based.
Data set [2] deals with Mus musculus. Briefly: Toxicity in mouse assessed as induction of hypoactivity measured for 30 mins at 25 mg/kg, ip measured by spontaneous locomotor activity assay. The format is organism-based. Also noted: dose 25 mg/kg, route intraperitoneal. The note with it: in vivo, 0.5 h.
Data set [3] concerns Mus musculus. Briefly: Toxicity in mouse assessed as induction of hyperactivity measured for 30 mins at 25 mg/kg, ip measured by spontaneous locomotor activity assay. The format is organism-based. On the set-up: dose 25 mg/kg, route intraperitoneal. The settings on record: in vivo, 0.5 h.
Data set [4] has as its target Sodium-dependent serotonin transporter (Homo sapiens, UniProt P31645). Kind of data set: Displacement of [3H]imipramine from human recombinant SERT receptor expressed in HEK293 cells. The format is cell-based.
Data set [5] deals with T1, 5-hydroxytryptamine receptor 2C (Homo sapiens, UniProt P28335).
T1 sequence (P28335 whole entry): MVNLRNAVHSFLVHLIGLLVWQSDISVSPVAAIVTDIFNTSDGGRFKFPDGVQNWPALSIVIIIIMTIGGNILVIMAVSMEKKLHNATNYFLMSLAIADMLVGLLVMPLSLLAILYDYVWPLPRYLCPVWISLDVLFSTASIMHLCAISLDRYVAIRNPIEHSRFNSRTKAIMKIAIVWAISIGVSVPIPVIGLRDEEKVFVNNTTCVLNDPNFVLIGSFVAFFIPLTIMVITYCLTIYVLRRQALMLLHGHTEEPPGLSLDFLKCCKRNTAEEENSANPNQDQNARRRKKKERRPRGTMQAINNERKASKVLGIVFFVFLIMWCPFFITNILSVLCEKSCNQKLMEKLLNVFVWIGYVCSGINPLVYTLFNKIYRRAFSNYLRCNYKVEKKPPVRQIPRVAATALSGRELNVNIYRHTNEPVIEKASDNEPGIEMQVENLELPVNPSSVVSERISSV
Briefly: Displacement of [3H]mesulergine from human recombinant 5HT2C receptor expressed in CHO-K1 cells. The format is cell-based.

For data set [6], the target named is Voltage-gated inwardly rectifying potassium channel KCNH2 (Homo sapiens, UniProt Q12809). Kind of data set: Inhibition of human ERG channel.
Data set [7] has as its system Mus musculus. Kind of data set: Antidepressant activity in mouse at 25 mg/kg, ip administered 30 mins before test by forced swimming test. The format is functional, organism-based. Also noted: dose 25 mg/kg.
A further data set deals with T2, Cytochrome P450 1A2 (Homo sapiens, UniProt P05177).
T2 sequence (P05177 whole entry): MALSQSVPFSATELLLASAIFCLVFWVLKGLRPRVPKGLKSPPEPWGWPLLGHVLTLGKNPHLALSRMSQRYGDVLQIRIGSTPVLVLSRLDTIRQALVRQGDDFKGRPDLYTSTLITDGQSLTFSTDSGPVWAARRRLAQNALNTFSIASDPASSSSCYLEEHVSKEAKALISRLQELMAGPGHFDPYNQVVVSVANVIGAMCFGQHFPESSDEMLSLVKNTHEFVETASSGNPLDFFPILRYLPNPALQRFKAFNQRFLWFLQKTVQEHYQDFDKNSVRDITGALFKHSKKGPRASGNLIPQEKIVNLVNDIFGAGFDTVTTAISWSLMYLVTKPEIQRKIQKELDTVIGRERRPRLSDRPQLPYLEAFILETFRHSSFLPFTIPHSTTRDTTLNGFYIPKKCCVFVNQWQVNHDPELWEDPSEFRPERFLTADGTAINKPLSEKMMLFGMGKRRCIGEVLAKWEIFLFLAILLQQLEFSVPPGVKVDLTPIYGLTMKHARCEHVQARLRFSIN
Kind of data set: Inhibition of CYP1A2. The format is ADME.

In another data set the target is Cytochrome P450 2D6 (Homo sapiens, UniProt P10635). Kind of data set: Inhibition of CYP2D6. The format is ADME.
A further data set deals with Cytochrome P450 2C9 (Homo sapiens, UniProt P11712). Kind of data set: Inhibition of CYP2C9. The format is ADME.
The next data set addresses Cytochrome P450 3A4 (Homo sapiens, UniProt P08684). Kind of data set: Inhibition of CYP3A4. The format is ADME.

Chain of Sodium-dependent serotonin transporter (P31645 whole entry): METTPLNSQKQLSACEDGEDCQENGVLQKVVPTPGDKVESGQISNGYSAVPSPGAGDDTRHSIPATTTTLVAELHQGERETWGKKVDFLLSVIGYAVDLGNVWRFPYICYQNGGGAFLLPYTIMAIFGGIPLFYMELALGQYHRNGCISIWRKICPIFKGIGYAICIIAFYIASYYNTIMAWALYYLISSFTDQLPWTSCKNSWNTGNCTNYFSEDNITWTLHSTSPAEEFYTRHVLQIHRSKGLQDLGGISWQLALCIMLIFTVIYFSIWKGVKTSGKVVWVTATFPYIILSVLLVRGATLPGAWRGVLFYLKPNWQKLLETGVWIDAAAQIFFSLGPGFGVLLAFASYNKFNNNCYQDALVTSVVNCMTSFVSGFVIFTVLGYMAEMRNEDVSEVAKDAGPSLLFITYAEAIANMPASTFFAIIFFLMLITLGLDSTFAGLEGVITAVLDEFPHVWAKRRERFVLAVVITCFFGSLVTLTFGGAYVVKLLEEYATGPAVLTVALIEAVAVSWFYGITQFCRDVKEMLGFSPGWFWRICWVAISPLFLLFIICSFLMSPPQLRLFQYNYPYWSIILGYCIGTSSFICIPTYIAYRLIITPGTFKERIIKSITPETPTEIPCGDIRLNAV
Chain of 5-hydroxytryptamine receptor 2A (P28223 whole entry): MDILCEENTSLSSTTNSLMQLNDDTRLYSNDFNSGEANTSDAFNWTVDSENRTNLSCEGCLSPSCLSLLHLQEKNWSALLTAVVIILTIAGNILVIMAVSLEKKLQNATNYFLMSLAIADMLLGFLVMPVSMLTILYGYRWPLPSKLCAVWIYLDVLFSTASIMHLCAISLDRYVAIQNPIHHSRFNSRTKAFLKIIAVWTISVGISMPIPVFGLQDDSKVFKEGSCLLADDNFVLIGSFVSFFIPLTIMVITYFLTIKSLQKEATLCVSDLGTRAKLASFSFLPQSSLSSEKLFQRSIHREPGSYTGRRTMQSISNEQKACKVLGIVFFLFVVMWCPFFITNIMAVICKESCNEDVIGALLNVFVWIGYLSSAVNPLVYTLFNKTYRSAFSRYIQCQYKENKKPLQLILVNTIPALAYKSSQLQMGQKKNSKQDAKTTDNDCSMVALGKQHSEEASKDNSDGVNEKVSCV
Chain of Voltage-gated inwardly rectifying potassium channel KCNH2 (Q12809 whole entry): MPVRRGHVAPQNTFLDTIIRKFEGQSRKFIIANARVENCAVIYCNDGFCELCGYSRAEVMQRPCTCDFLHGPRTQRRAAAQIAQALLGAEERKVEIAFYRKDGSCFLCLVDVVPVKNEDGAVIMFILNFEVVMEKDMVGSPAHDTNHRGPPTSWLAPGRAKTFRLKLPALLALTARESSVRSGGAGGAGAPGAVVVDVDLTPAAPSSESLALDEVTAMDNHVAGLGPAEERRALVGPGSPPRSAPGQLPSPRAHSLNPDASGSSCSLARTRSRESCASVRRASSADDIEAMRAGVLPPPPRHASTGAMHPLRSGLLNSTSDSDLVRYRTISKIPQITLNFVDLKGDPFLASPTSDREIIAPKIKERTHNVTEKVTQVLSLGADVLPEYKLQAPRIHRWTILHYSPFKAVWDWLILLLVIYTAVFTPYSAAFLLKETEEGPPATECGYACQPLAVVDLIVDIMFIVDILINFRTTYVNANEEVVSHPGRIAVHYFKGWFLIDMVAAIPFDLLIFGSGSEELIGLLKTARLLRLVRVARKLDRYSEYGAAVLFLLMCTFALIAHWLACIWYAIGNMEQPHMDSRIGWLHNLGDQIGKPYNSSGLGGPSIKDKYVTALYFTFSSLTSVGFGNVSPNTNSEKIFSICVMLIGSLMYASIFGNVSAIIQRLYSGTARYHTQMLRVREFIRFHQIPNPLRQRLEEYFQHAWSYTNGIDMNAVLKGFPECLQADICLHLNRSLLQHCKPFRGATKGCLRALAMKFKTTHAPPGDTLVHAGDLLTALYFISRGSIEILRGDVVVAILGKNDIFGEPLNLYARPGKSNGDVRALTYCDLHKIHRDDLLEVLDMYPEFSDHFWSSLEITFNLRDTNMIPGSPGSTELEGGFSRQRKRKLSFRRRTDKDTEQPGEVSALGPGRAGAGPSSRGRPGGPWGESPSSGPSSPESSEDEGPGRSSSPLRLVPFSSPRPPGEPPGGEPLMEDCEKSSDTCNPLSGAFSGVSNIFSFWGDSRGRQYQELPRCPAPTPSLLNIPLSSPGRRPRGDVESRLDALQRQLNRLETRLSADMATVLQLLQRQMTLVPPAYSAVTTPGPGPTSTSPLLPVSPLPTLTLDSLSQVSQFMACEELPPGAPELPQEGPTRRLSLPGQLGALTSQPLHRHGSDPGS
Chain of Cytochrome P450 2D6 (P10635 whole entry): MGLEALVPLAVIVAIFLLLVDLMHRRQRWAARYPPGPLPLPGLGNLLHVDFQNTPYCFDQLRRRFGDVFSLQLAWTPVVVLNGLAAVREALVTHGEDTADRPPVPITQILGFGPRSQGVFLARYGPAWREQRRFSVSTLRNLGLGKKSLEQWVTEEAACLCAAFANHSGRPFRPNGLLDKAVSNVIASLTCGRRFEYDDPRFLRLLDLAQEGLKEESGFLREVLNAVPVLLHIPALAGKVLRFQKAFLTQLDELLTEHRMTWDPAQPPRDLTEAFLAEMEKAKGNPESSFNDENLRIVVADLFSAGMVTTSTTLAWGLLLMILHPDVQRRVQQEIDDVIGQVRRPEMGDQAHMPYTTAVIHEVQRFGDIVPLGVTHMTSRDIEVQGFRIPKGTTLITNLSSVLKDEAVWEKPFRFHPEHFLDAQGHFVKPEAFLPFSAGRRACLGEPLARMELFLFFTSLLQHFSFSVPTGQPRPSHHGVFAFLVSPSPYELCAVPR
Chain of Cytochrome P450 2C9 (P11712 whole entry): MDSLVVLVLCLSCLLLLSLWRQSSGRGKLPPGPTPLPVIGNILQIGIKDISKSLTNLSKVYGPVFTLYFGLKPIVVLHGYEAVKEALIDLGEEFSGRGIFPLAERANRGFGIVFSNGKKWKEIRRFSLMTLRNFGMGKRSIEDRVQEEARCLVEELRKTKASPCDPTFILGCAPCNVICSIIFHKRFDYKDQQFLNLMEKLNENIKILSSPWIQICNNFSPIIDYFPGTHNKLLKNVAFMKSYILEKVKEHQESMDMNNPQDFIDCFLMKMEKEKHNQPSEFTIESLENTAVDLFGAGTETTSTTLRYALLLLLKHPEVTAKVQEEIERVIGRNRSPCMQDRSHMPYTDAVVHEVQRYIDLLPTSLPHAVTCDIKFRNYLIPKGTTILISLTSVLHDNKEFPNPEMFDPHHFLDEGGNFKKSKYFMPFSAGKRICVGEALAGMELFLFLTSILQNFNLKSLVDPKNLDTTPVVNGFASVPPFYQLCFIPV
Chain of Cytochrome P450 3A4 (P08684 whole entry): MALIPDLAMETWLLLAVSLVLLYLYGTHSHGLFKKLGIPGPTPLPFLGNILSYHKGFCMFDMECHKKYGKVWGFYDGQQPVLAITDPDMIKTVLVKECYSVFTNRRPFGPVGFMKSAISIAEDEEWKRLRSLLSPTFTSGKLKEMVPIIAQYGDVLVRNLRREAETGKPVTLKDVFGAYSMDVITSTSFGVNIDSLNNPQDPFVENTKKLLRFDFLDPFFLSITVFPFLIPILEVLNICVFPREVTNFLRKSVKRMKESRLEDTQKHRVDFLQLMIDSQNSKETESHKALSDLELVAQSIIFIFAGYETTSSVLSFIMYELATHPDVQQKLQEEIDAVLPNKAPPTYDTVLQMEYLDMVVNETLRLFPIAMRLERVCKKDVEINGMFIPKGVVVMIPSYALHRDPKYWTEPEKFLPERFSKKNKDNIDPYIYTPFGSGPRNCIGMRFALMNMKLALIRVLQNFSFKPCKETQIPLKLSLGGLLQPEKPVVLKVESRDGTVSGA

Regarding `Cc1nc(C(=O)NCCCN2CCN(c3cccc(C)c3C)CC2)cc(C(C)(C)C)n1.Cl`, the IC50 in data set [1] turned out to be 458 nM; in data set [4], 730 nM; in data set [5], 575 nM; in data set [6], 5900 nM. The Activity result with Mus musculus [2] and in the data set with Mus musculus [3] was “Non-toxic” throughout.
Turning to `Cc1nc(C(=O)NCCCN2CCN(c3cccc(C)c3C)CC2)cc(C(C)C)n1.Cl`, the IC50 in data set [1] stood at 490 nM; in data set [4], 1210 nM; in data set [5], 1550 nM. In addition, the Activity result in the data set on Mus musculus [2] and with Mus musculus [3] was “Non-toxic” each time.
In the case of `Cc1cc(C(=O)NCCCN2CCN(c3cccc(C)c3C)CC2)nc(C2CC2)n1.Cl`, the IC50 was 256 nM in data set [1], 347 nM in [4] and 1180 nM in [5]. Moreover, the Activity result with Mus musculus [2] and in the data set on Mus musculus [3] was “Non-toxic” in each case.
`Cc1cc(C(=O)NCCN2CCN(c3cccc(C)c3C)CC2)nc(C(C)(C)C)n1.Cl`: the results for the IC50 in data set [1], in data set [4] and in [5] were 69 nM, 6370 nM and 494 nM, respectively. The Activity entry in the data set on Mus musculus [2] and in the data set with Mus musculus [3] was “Non-toxic” in each case.
As for `COc1c(C)nc(C)nc1C(=O)NCCN1CCN(c2cccc(Cl)c2Cl)CC1.Cl`, the IC50 came to 263 nM in [1], 646 nM in [4] and 135 nM in [5]. The Activity result with Mus musculus [2] and in the data set with Mus musculus [3] was “Non-toxic” each time.
Turning to `COc1c(C)nc(C)nc1C(=O)NCCN1CCN(c2cccc(C)c2C)CC1.Cl`, the IC50 in data set [1] was determined as 842 nM; in data set [4] it was 2100 nM; in data set [5], 1270 nM. Further, the Activity entry in the data set on Mus musculus [2] and in the data set with Mus musculus [3] was “Non-toxic” each time.
For `COc1c(C)nc(C)nc1C(=O)NCCCN1CCN(c2cccc(C)c2C)CC1.Cl`, the values for the IC50 in data set [1], in data set [4] and in [5] were 744 nM, 892 nM and 2050 nM, respectively. In addition, the Activity entry with Mus musculus [2] is listed as “Toxic”.
On to `Cc1nc(C(=O)NCCCN2CCN(c3cccc(Cl)c3Cl)CC2)cc(C(C)C)n1.Cl`, for which the IC50 amounted to 113 nM in [1], 644 nM in data set [4], 227 nM in [5] and 5400 nM in [6]. Besides, the Activity result in the data set on Mus musculus [2] and with Mus musculus [3] was “Non-toxic” in each case. In the data set on Mus musculus [7], the result was Active.
With `CSc1nc(C)cc(C(=O)NCCCN2CCN(c3cccc(C)c3C)CC2)n1.Cl`, the half-inhibitory concentration (IC50) in data set [1] is 54 nM; in data set [4], 394 nM; in data set [5], 1170 nM. Also, the Activity result in the data set with Mus musculus [2] and in the data set with Mus musculus [3] was “Non-toxic” each time. Further, the outcome in the data set on Mus musculus [7] was Active.
Regarding `Cc1nc(C(=O)NCCCN2CCN(c3cccc(Cl)c3Cl)CC2)cc(-c2ccccc2)n1`, the figures for the IC50 in [1], in data set [4] and in [5] were 35 nM, 588 nM and 30 nM, respectively.
As to `Cc1cc(C(=O)NCCCN2CCN(c3cccc(C)c3C)CC2)nc(C(C)(C)C)n1.Cl`, the IC50 in data set [1] was 274 nM; in data set [4] it was 537 nM; in [5], 2690 nM. Moreover, the Activity result in the data set on Mus musculus [2] and with Mus musculus [3] was “Non-toxic” each time.
As for `Cc1cc(C(=O)NCCCN2CCN(c3cccc(Cl)c3Cl)CC2)nc(C)n1.Cl`, the IC50 in [1] turned out to be 166 nM; in data set [4], 289 nM; in [5] it was 610 nM. Further, the Activity result in the data set on Mus musculus [3] was “Non-toxic”. Moreover, the outcome with Mus musculus [7] was Active.
Consider `CSc1nc(C)cc(C(=O)NCCN2CCN(c3cccc(Cl)c3Cl)CC2)n1.Cl`, for which the values for the IC50 in data set [1], in [4] and in data set [5] were 55 nM, 881 nM and 81 nM, respectively. Also, the Activity result in the data set with Mus musculus [2] and with Mus musculus [3] was “Non-toxic” throughout. Moreover, the outcome in the data set on Mus musculus [7] was Active.
Take `CSc1nc(C)cc(C(=O)NCCN2CCN(c3cccc(C)c3C)CC2)n1.Cl`: the IC50 in [1] was 47 nM; against Cytochrome P450 1A2, above 20000 nM; against Cytochrome P450 2D6, above 20000 nM; against Cytochrome P450 2C9, above 20000 nM; against Cytochrome P450 3A4 it was above 20000 nM; in data set [4], 1010 nM. In addition, the IC50 in data set [5] came to 148 nM. In addition, the Activity entry in the data set on Mus musculus [2] and in the data set on Mus musculus [3] was “Non-toxic” each time. Moreover, the outcome in the data set with Mus musculus [7] was Active.
